Laboratory results: patent US12138625B2, “Screening kit and method” (CELLPLY S.R.L., priority 2016, dated 2024)

How the values were obtained:
[1] = system: Jurkat cells; assay: calcium signal (Fluo-4) of Jurkat cells after stimulation in open microwells; format: cell-based, human; conditions: Fluo-4 fluorescence, OKT3 10 μg/mL, average of a series of 3 experiments
Procedure: Cells from the Jurkat cell line (human Leukemic T cells) were obtained from ATCC and cultured in RPMI 1640 medium supplemented with 10% inactivated FBS medium, 10 mM Hepes, 2 mM Ultraglutamine and 1 mM sodium pyruvate, 1% Penicillin/Streptomycin in 25 cm^2 flasks at 37° C. and 5% CO2.
The OKT3 hybridomas were cultured in bioreactors (CellLine, Integra Biosciences) in complete RPMI 1640 medium containing 3% FBS and the supernatant was collected 2 times a week. The purification of monoclonal antibodies was performed using a double saturated ammonium sulfate precipitation at 30% and 50%, followed by dialysis in PBS. The purity of OKT3 was assessed by SDS-PAGE gel and the amount of antibody was determined through NanoDrop (Thermo Scientific). The antibody was then frozen at −80° C. before use.
For the assay in open microwells according to the present invention, Jurkat cells were labeled with Fluo-4 20 μM in HBSS, centrifuged and resuspended in serum-free medium (RPMI 1640 with 25 mM Hepes or HBSS) at a concentration of 1.6×10^6 cells/mL in 1.5 mL Eppendorf tubes used as input reservoirs for the open reversed microwell system. […] The images were acquired by a camera connected to the microscope at a distance of 1 minute and processed by software developed in LabView, quantifying the dynamic performance of the same signal on each sample cell.

[2] = system: SU-DHL-4 cancer cells; assay: open well assay of Rituximab on SU-DHL-4 lymphoma cells (Calcein-AM / PI, time-lapse); format: cell-based; conditions: Rituximab 10 μg/mL, human serum 1%, PI 5 μM; versus CTRL; FIG. 11A
Procedure: Cells: SU-DHL-4 lymphoma cells and Raji cells were used (ATCC CCL-86). 3·10^5 cells/mL were cultured in RPMI medium supplemented with 10% FBS, 1% […]/streptomycin at 37° C., 95% RH, 5% CO2. The cells were amplified, dividing them when in confluence. PBMC were isolated from blood by centrifugation in gradient. Whole blood from healthy donors was collected into tubes treated with anticoagulants according to the directive “ethical principles and guidelines for the protection of humans in research”. Isolated PBMC were washed twice with 10 mL cold HBSS after lysis of red blood cells. The concentration of cells and their viability was determined with Trypan Blue on haemocytometer. The concentration was adjusted to 1 million cells/mL.
Different batches of SU-DHL-4 or Raji cells were harvested at the peak of their growth, washed with PBS and counted in a hemocytometer with Trypan Blue. The cell concentration was adjusted to 1 million cells/mL and they were labeled with Calcein AM (CAM) 5 nM for flow cytometry and 250 nM for the assay according to the present invention. […] Cell viability was finally assessed by PI and flow cytometry. […]
The images were acquired in brightfield (BF) to evaluate the morphological characteristics and then in fluorescence to evaluate the signal in DAPI bands (ex: 360/40 nm, em: 460/50 nm), FITC (ex: 480/30 nm, em: 535/40 nm), TRITC (ex: 540/25 nm, em: 605/55 nm). […]

Row | Substance | increase of the signal peak, compared to the baseline value [1] | dead cells (PI, TRITC channel) in time-lapse images [2]
1 | OKT3: monoclonal antibody purified from OKT3 hybridoma supernatant | 178%+/−90% | –
2 | RTX: monoclonal antibody Rituximab | – | present only at T2 and T3 in the RTX group
